# Source: patent publication US12384769B2, “Heteroaryl-substituted aminoalkyl azole compounds as pesticides” (Elanco Animal Health GmbH, priority 2019, dated 2025)
# Key:
# Type in all cases: in vivo
# [1] = system: Boophilus microplus; assay: Boophilus microplus injection test (BOOPMI Injection); conditions: Rhipicephalus microplus, 168 h, injection into adult engorged female ticks, egg deposition after 7 days, read-out: activity (efficacy, infertile eggs); for pest or weed control at 0.004 mg: 4 μg/animal; for pest or weed control at 0.02 mg: 20 μg/animal
# Procedure: Boophilus microplus—Injection Test (BOOPMI Injection)
# (§1) Solvent: dimethyl sulfoxide
# To produce a suitable preparation of active compound, 10 mg of active compound are dissolved in 0.5 mL solvent, and the concentrate is diluted with solvent to the desired concentration.
# Five adult engorged female ticks (Boophilus microplus) are injected with 1 μL compound solution into the abdomen. The ticks are transferred into replica plates and incubated in a climate chamber.
# After 7 days egg deposition of fertile eggs is monitored. Eggs where fertility is not visible are stored in a climate chamber till hatching after about 42 days. An efficacy of 100% means all eggs are infertile; 0% means all eggs are fertile.
# [2] = system: Rhipicephalus microplus (strain Parkhurst, resistant against synthetic pyrethroids); assay: Rhipicephalus microplus in-vitro contact test, larval cattle tick (BOOPMI Contact); conditions: 5 μg/cm^2 (=500 g/ha), after 48 hours, read-out: activity (efficacy, larvae dead or moribund)
# Procedure: Rhipicephalus microplus—in-Vitro Contact Tests Larval Cattle Tick (Strain Parkhurst, Resistant Against Synthetic Pyrethroids) (BOOPMI Contact)
# (§2) 9 mg compound is solved in 1 ml acetone and diluted with acetone to the desired concentration. 250 μL of the test solution is filled in 25 ml glass test tubes and homogeneously distributed on the inner walls by rotation and tilting on a shaking device (2 h at 30 rpm). With a compound concentration of 900 ppm, an inner surface of 44.7 cm^2 and a homogeneous distribution, a dose of 5 μg/cm^2 is achieved.
# After the solvent has evaporated, each test tube is filled with 20-50 cattle tick larvae (Rhipicephalus microplus), closed with a perforated lid and incubated in a horizontal position at 85% relative humidity and 27° C. in an incubator. After 48 hours efficacy is determined. The larvae are patted on the ground of the tubes and negative geotactic behaviour is recorded.
# An efficacy of 100% means all larvae are dead or moribund; 0% means no larvae are dead or moribund.
# [3] = system: Ctenocephalides felis; assay: Ctenocephalides felis in-vitro contact test, adult cat flea; conditions: 5 μg/cm^2 (=500 g/ha), after 48 hours, read-out: activity (efficacy, fleas dead or moribund)
# Procedure: Ctenocephalides felis—in-Vitro Contact Tests Adult Cat Flea
# as §2, with “[…]” for “250 μL”
# (§3) After the solvent has evaporated, each test tube is filled with 5-10 adult cat fleas (Ctenocephalides felis), closed with a perforated lid and incubated in a lying position at room temperature and relative humidity. After 48 hours efficacy is determined. The fleas are patted on the ground of the tubes and are incubated on a heating plate at 45-50° C. for at most 5 minutes Immotile or uncoordinated moving fleas, which are not able to escape the heat by climbing upwards, are marked as dead or moribund.
# An efficacy of 100% means all fleas are dead or moribund; 0% means no fleas are dead or moribund.
# [4] = system: Ctenocephalides felis; assay: Ctenocephalides felis oral test (CTECFE); conditions: 48 h, 100 ppm in cattle blood, after 2 days
# Procedure: Ctenocephalides felis—Oral Test (CTECFE)
# as §1
# To produce a suitable preparation of active compound, 10 mg of active compound are dissolved in 0.5 ml solvent, and the concentrate is diluted with cattle blood to the desired concentration.
# Approximately 20 adult unfed cat fleas (Ctenocephalides felis) are placed in flea chambers. The blood chamber, sealed with parafilm on the bottom, are filled with cattle blood supplied with compound solution and placed on the gauze covered top of the flea chamber, so that the fleas are able to suck the blood. The blood chamber is heated to 37° C. whereas the flea chamber is kept at room temperature.
# After 2 days mortality in % is determined. 100% means all the fleas have been killed; 0% means none of the fleas have been killed.
# [5] = system: Spodoptera frugiperda; assay: Spodoptera frugiperda spray test; conditions: in Zea mays, 168 h, read-out: activity (mortality)
# Procedure: Spodoptera frugiperda—Spray Test
# Solvent: 78.0 parts by weight acetone • 1.5 parts by weight dimethylformamide
# (§4) Emulsifier: alkylarylpolyglycol ether
# (§5) To produce a suitable preparation of active compound, 1 part by weight of active compound is mixed with the stated amount of solvents and is diluted with water, containing an emulsifier concentration of 1000 ppm, to the desired concentration. Further test concentrations are prepared by dilution with emulsifier containing water.
# Maize (Zea mays) leaf sections are sprayed with a preparation of the active ingredient of the desired concentration. Once dry, the leaf sections are infested with fall armyworm larvae (Spodoptera frugiperda).
# After 7 days mortality in % is determined. 100% means all caterpillars have been killed and 0% means none of the caterpillars have been killed.
# [6] = system: Diabrotica balteata; assay: Diabrotica balteata spray test; conditions: 168 h, wheat seeds, after 7 days, read-out: activity (efficacy, seedlings grown); for pest or weed control at 160 µg/disc, 500 g/ha: 500 g/ha (=160 μg/well)
# Procedure: Diabrotica balteata—Spray Test
# Solvent: 78.0 parts by weight of acetone • • 1.5 parts by weight of dimethylformamide
# as §4
# as §5, with “solvent,” for “solvents”, “and the concentrate” for “and”
# Soaked wheat seeds (Triticum aestivum) are placed in a multiple well plate filled with agar and some water and are incubated for 1 day to germinate (5 seeds per well). The germinated wheat seeds are sprayed with a test solution containing the desired concentration of the active ingredient. Afterwards each unit is infected with 10-20 larvae of the banded cucumber beetle (Diabrotica balteata).
# After 7 days efficacy in % is determined. 100% means all the seedlings have grown up like in the untreated, uninfected control; 0% means none of the seedlings have grown.
# [7] = system: Rhipicephalus sanguineus; assay: Rhipicephalus sanguineus in-vitro contact test, adult brown dog ticks (RHIPSA Contact); conditions: 5 μg/cm^2 (=500 g/ha), after 48 hours, read-out: activity (efficacy, ticks dead or moribund)
# Procedure: Rhipicephalus sanguineus—in-Vitro Contact Tests with Adult Brown Dog Ticks (RHIPSA Contact)
# as §2, with “μl_,” for “μL”
# as §3, with “brown dog ticks (Rhipicephalus sanguineus),” for “cat fleas (Ctenocephalides felis),”, “ticks” for “fleas”, “ticks,” for “fleas,”
# An efficacy of 100% means all ticks are dead or moribund; 0% means no ticks are dead or moribund.
SMILES,pest or weed control at 0.004 mg [1],pest or weed control at 5 µg/cm2 [2],"pest or weed control at 5 µg/cm2, 5 µg/cm2 [3]",mortality at 100 ppm [4],mortality at 100 g/ha [5],pest or weed control at 100 g/ha [6],"pest or weed control at 5 µg/cm2, 5 µg/cm2 [7]",pest or weed control at 0.02 mg [1],"pest or weed control at 160 µg/disc, 500 g/ha [6]",mortality at 500 g/ha [5]
"C[C@H](Nc1nc2cc(C(F)(F)F)c(Cl)cc2o1)c1ncnn1-c1cnc(C#N)cn1 [Example I-057, 5-{5-[(1S)-1-{[6-Chlor-5-(trifluormethyl)-1,3-benzoxazol-2-yl]amino}ethyl]-1H-1,2,4-triazol-1-yl}pyrazin-2-carbonitril]",80%,100%,100%,100%,100%,–,–,–,–,–
"C[C@H](Nc1nc2cc(OC(F)(F)F)cc(Cl)c2o1)c1ncnn1-c1ncccn1 [Example I-070, 7-Chlor-N-{(1S)-1-[1-(pyrimidin-2-yl)-1H-1,2,4-triazol-5-yl]ethyl}-5-(triflourmethoxy)-1,3-benzoxazol-2-amin]",–,–,90%,100%,100%,100%,–,–,–,–
"C[C@H](Nc1nc2cc(OC(F)F)cc(Cl)c2o1)c1ncnn1-c1ncccn1 [Example I-074, 7-Chlor-5-(difluormethoxy)-N-{(1S)-1-[1-(pyrimidin-2-yl)-1H-1,2,4-triazol-5-yl]ethyl}-1,3-benzoxazol-2-amin]",80%,–,100%,100%,–,–,–,–,–,–
"C[C@H](Nc1nc2cc(OC(F)F)cc(Cl)c2o1)c1ncnn1-c1ncc(Br)cn1 [Example I-071, N-{(1S)-1-[1-(5-Brompyrimidin-2-yl)-1H-1,2,4-triazol-5-yl]ethyl}-7-chlor-5-(difluormethoxy)-1,3-benzoxazol-2-amin]",–,–,90%,100%,–,100%,–,–,–,–
C[C@H](Nc1nc2cc(C(F)(F)F)c(Cl)cc2o1)c1ncnn1-c1ccc(C(F)(F)F)cn1 [Example I-031],–,–,–,–,–,–,80%,–,–,–
"COc1cnc(-n2ncnc2[C@H](C)Nc2nc3cc(C(F)(F)F)c(Cl)cc3o2)nc1 [Example I-058, 6-Chlor-N-{(1S)-1-[1-(5-methoxypyrimidin-2-yl)-1H-1,2,4-triazol-5-yl]ethyl}-5-(trifluormethyl)-1,3-benzoxazol-2-amin]",–,100%,100%,–,83%,100%,–,–,–,–
Cc1nc([C@H](C)Nc2nc3cc(C(F)(F)F)cc(Cl)c3o2)n(-c2ncccn2)n1 [Example I-014],100%,100%,80%,100%,–,100%,–,100%,100%,100%
"C[C@H](Nc1nc2cc(C(F)(F)F)c(Br)cn2n1)c1ncnn1-c1ncccn1 [Example I-094, 6-bromo-N-{(1S)-1-[1-(pyrimidin-2-yl)-1H-1,2,4-triazol-5-yl]ethyl}-7-(trifluoromethyl)[1,2,4]triazolo[1,5-a]pyridin-2-amine]",100%,–,100%,100%,–,100%,–,100%,–,–
Cc1nc([C@H](C)Nc2nc3cc(C(F)(F)F)c(Cl)cc3o2)n(-c2ccc(C#N)cn2)n1 [Example I-019],–,100%,100%,–,–,100%,–,100%,100%,100%
"C[C@H](Nc1nc2cc(C(F)(F)F)cc(Cl)c2o1)c1ncnn1-c1cc(C#N)ccn1 [Example I-052, 2-{5-[(1S)-1-{[7-Chlor-5-(trifluormethyl)-1,3-benzoxazol-2-yl]amino}ethyl]-1H-1,2,4-triazol-1-yl}isonicotinonitril]",100%,–,100%,–,–,–,–,100%,100%,100%
"C[C@H](Nc1nc2cc(OC(F)(F)F)cc(Cl)c2o1)c1ncnn1-c1ncc(Cl)cn1 [Example I-079, 7-Chlor-N-{(1S)-1-[1-(5-chlorpyrimidin-2-yl)-1H-1,2,4-triazol-5-yl]ethyl}-5-(trifluormethoxy)-1,3-benzoxazol-2-amin]",80%,–,100%,100%,–,100%,–,–,–,–
"CC(C)c1cc(Cl)c2oc(N[C@@H](C)c3ncnn3-c3ccncn3)nc2c1 [Example I-066, 7-Chlor-5-isopropyl-N-{(1S)-1-[1-(pyrimidin-4-yl)-1H-1,2,4-triazol-5-yl]ethyl}-1,3-benzoxazol-2-amin]",100%,90%,–,–,–,–,80%,100%,100%,–
"C[C@H](Nc1nc2cc(C(F)(F)F)cc(Cl)c2o1)c1ncnn1-c1ncc(C#N)cn1 [Example I-042, 2-{5-[(1S)-1-{[7-Chlor-5-(trifluormethyl)-1,3-benzoxazol-2-yl]amino}ethyl]-1H-1,2,4-triazol-1-yl}pyrimidin-5-carbonitril]",–,90%,90%,–,–,–,–,–,–,–
